Results reported in patent US20170258756A1, “A Method for Topically Treating Actinic Keratosis on the Scalp with Ingenol 3-(3,5-diethylisoxazole-4-carboxylate)” (LEO Laboratories Limited, priority 2014, published 2017).

What was measured:
[1] = test system: actinic keratosis on the scalp; experiment: Part 1 dose escalation trial, gel once daily for two consecutive days on the scalp (LSR / DLT); assay type: in vivo, human
Source text: Local skin reactions (LSRs) occurs sometimes in the treated area. Often LSRs are quantified by a scale evaluating the following types of skin reactions: erythema, flaking/scaling, crusting, swelling, vasiculation/postulation, and erosion/ulceration which are categorized into categories 0-4 depending on the severity of the reactions.
Dose Limiting toxicity (DLT) is defined as the following LSR: […]
Erosion/ulceration grade 4.
Or other clinically relevant signs or symptoms observed, which the Investigator judges to be counted as a DLT. Maximum tolerated dose (MTD) is declared as dose level at which less than 4 subjects out of experience a DLT of cohort of 12 subjects.
Part 1 was a dose escalation study conducted with a once daily application of trial medication for two consecutive days and continued until the MTD was identified.
Dose escalation proceeded if the safety and tolerability data of the subject up to day 8 was reviewed and considered satisfactory. The treatment consisted of once daily treatment for 2 consecutive days. Up to 5 different doses may be investigated in cohorts of […]. The number of subjects in each cohort depended on the number of observed DLTs. However, the MTD was always be confirmed in a cohort of 12 subjects. […] Dose escalation was stopped at the 0.075% dose level as the investigators in this study felt that the application site adverse events, although manageable, could pose a problem for some patients. […] Part 2 is a study of the efficacy of the 0.037% dose identified in part 1 in a three day regimen.
Part 1: Trial medication, ingenol 3-(3,5-diethylisoxazole-4-carboxylate) gel, will be applied to the treatment area once daily for two consecutive days until the maximum tolerated dose has been reached for each formulation. Up to five different doses of active compound in gel may be investigated in cohorts 12 subjects.
Predefined grades of Local Skin Responses (LSRs) will constitute dose limiting toxicity (DLT). The maximum tolerated dose is defined as the highest dose level at which less than 4 out of12 subjects experience a Dose limiting toxicity.
The doses will be administered in an escalating manner following review of safety and tolerability data performed by the dose escalation committee. Evaluation of the safety and tolerability data will be performed after Visit 5/day 8. Then subjects will be followed for 8 weeks after first application of investigational product.

dermal tumours = experiment: in vivo studies in mice, effects on dermal tumours; conditions: compared with ingenol mebutate
Source text: The exact mechanism of action of ingenol 3-(3,5-diethylisoxazole-4-carboxylate) continues to be investigated, but it is believed that ingenol 3-(3,5-diethylisoxazole-4-carboxylate) has a dual mechanism of action inducing cell death as well as stimulation of immune response.

[2] = test system: actinic keratosis on the scalp; experiment: Part 2 open label trial, 0.037% gel once daily for three consecutive days on the scalp; assay type: in vivo, human
Source text: The outcome for Part 2 is safety and efficacy in a once daily application for three consecutive days on the scalp. The efficacy in treating of the AK will be measured as reduction in AK count in the treated area of lesions which are not considered hyperkeratotic/hypertrophic.
In parallel the efficacy in treating of the AK will be measured as reduction in AK count in the treated area of lesions which are considered hyperkeratotic/hypertrophic.
The reduction in AK count will be performed at week 4 and 8 no matter the type of lesion. Also complete clearance of AKs in the treated area which are not considered hyperkeratotic/hypertrophic at week 8 will be measured.
To qualify for part 2 of the trial, the subjects must have 5-20 clinically visible and discrete AKs within 250 cm^2 area on the balding scalp (The balding part of the scalp should be greater than 25 cm^2 and up to approximately 250 cm^2). In addition to the requirement of 5-20 clinically typical, visible and discrete AKs within the selected treatment area, subjects may also have visible and discrete hyperkeratotic/hypertrophic lesions in this area. The subjects will be treated with a dose of 0.037% as a once daily three consecutive days treatment and followed for 8 weeks.
The trial consists of an initial part, where 18 subjects will be treated on the scalp. […] As this is a safety trial, it is considered justified to conduct this clinical trial as an open-label, uncontrolled trial. An early safety and tolerability evaluation will be performed following the 3 days treatment. If safety and tolerability is found acceptable by the Early Data Review Committee, and additional 44 subjects will be enrolled in order to expand safety observations and obtain an estimate of treatment efficacy.
The patients are scheduled for 7 visits: • Visit 1: within 21 days prior to day 1 • Visit 2: day 1 (application of trial medication) • Visit 3: […] (application of trial medication) • Visit 4: day 8 (+2 day) • Visit 5: week 2 (±2 day) • Visit 6: week 4 (±4 day) • Visit 7: week 8 (±7 day)
LSRs are evaluated at all visits following visit 1. AK lesion counts are performed on Visit 2, 6 and 7.
At Baseline (Day 1) and Visit 7 (Week 8), the investigator will make a clinical (visual and tactile) assessment of the extent of photo-damage in the treatment area with respect to 1) fine wrinkling, 2) coarse wrinkling, 3) mottled pigmentation, 4) roughness, 5) sallowness, 6) skin laxity, and 7) telangiectasia. Severity for each of these characteristics will be on a 5-point scale: None (0), Mild (1), Moderate (2), Severe (3), Extreme (4).
At Visit 7 (Week 8) the Investigator will make an overall clinical (visual and tactile) assessment of the subject's photo-damage change from baseline in the treatment area (including an integrated assessment of fine wrinkling, coarse wrinkling, mottled pigmentation, roughness, sallowness, skin laxity, and telangiectasia based on the subject's appearance at the baseline visit).
At Visit 7 (Week 8), the subjects will complete a self-assessment questionnaire evaluating the change in the 1) overall appearance of the skin and 2) overall feel of the skin after treatment. The scoring will be on a 5-point scale: Much worsened, Somewhat worsened, No change, somewhat improved, much improved.
The secondary response criteria will be analysed for the full analysis set and for the per protocol analysis set. The ratio of number of AK lesions at week 8 relative to baseline, excluding lesions identified at base line as hyperkeratotic/hypertrophic lesions, will be tabulated by treatment group. Separately for each treatment group, the rate and corresponding 95% confidence interval will be estimated from a negative binomial regression on the AK count at week 8 with the log baseline value as an offset variable. The same analysis will be performed for the subgroup of lesions identified as hyperkeratotic/hypertrophic at baseline. […]

CCc1noc(CC)c1C(=O)O[C@H]1C(C)=C[C@]23C(=O)[C@@H](C=C(CO)[C@@H](O)[C@]12O)[C@H]1[C@@H](C[C@H]3C)C1(C)C [ingenol 3-(3,5-diethylisoxazole-4-carboxylate)] was tested, and the “tolerability of selected dose with respect to LSRs and application site reaction” value ([1]; 0.037%, two days dosing regimen) was “well tolerated”, the “subjects meeting dose limiting toxicity (DLT) criteria” value ([1]; two day regimen, dose escalation up to 0.075%) was “no subjects met the predefined criteria for DLT” and the “dose level at which dose escalation was stopped” value ([1]; two day regimen, stopped because of application site adverse events, manageable) was 0.075%. For the same compound, the “tolerability of 0.037% and 0.05% doses” value ([1]; two day treatment, compared with 0.075%) was “clearly better tolerated”, the “efficacy in eliminating dermal tumours” value (dermal tumours) was “more efficacious than ingenol mebutate” and the “reduction in AK count” value ([2]; once daily three consecutive days, scalp, 62 patients, week 8) was 79%. The complete clearance ([2]; once daily three consecutive days, scalp, week 8) was 40%, the “improvement in appearance and feel reported by subjects” value ([2]; three day regimen, cosmetic outcome self-assessment, % of subjects) was “more than 90%” and the “photo damage improved, share of patients” value ([2]; three day regimen, investigator assessment) was “two-thirds”. The “time at which side-effects maximize” value ([2]; three day regimen, rapid decline thereafter) was 4 days and the side-effects ([2]; three day regimen, scalp) was “considered acceptable”.
